According to patent publication US20060252708A1, “Compositions of flavones and long chain fatty acid derivatives isolated from plants and methods related thereto for the control of prostate disorders” (priority 2005, published 2006):

Legend:
Type in all cases: cell-based
[1] = target: T1, androgen receptor (AR) (Homo sapiens, UniProt P10275); assay: Androgen receptor activation, luciferase reporter gene system in U2OS cells; settings: 10 nM andrusol, 24 hr incubation, FIG. 1 and FIG. 4
T1 construct: The full length AR cDNA was cloned from human's adipose tissue using PCR; expressed in transfected cells; host or cells: U2OS cells
T1 sequence (P10275 1-920): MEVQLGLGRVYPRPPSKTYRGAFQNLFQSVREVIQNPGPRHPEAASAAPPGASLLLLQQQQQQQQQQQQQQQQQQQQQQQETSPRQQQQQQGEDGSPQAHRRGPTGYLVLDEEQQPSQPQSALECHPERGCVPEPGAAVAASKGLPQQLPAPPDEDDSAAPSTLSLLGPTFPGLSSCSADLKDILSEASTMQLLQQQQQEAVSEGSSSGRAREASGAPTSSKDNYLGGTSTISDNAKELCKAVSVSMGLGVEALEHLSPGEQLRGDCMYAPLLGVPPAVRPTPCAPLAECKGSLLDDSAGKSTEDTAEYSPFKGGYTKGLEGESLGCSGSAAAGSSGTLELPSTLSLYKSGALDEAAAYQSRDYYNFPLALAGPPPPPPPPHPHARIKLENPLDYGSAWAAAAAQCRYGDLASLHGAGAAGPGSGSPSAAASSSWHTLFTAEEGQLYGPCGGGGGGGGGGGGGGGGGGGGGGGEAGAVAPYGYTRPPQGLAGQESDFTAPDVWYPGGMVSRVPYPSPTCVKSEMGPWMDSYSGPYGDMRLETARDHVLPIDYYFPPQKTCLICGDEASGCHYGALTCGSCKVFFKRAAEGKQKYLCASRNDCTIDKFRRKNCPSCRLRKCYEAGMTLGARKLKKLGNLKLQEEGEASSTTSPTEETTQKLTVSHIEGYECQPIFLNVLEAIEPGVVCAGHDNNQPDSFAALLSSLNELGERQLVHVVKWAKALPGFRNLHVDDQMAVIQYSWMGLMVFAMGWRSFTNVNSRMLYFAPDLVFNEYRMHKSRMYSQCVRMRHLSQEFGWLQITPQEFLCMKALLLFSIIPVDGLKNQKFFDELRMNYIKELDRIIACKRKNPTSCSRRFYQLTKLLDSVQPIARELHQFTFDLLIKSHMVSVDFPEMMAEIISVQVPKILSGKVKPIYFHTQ
Procedure: The activation of AR was performed using a luciferase reporting gene system. The full length AR cDNA was cloned from human's adipose tissue using PCR. The primer sequence 1 used was 5′-[…]-3′ (SEQ ID NO:1); the primer sequence 2 used was 5′-[…]-3′ (SEQ ID NO:2). The amplified PCR products were inserted into an expression vector, and then sequenced. The reporter genes were constructed using luciferase detected carrier pGL3-Promoter manufactured by Promega Ltd. Three copies of AR response element were inserted into upstream of pGL3-promoter (element sequence 3 used was 5′-[…] -3′) (SEQ ID NO:3). The co-transfection experiments were conducted in 96-well plates using U2OS cells. 24 hours after transfection, 10 nM andrusol, DMSO (0.1%), and testing compounds were added into cell culture for further 24 hr incubation.

[2] = test system: secreting PSA from LNCaP cells; assay: ELISA of PSA secreted from LNCaP cells (inhibition of PSA secretion); settings: for Rate of inhibition (%): Table 2, PSA secretion; for inhibition at 1 µg/mL: concentration 1 ug/ml; for inhibition at 3 µg/mL: concentration 3 ug/ml; for inhibition at 6.25 µg/mL: concentration 6.25 ug/ml
Procedure: For example, in cultured androgen-dependent prostate cancer cells as shown in An enzyme-linked immunoadsorbent assay was adopted to determine the level of secreting PSA from LNCaP cells, an androgen-dependent prostate epithelia cancer cells, by the above-mentioned flavones. At first, 100 μl polyclonal Ab at 4 μg/m was added to coat the microplate. They were placed for 12 hours at 4° C., and then washed by PBST and sealed the plate with PBST for 1 hour at 37° C. Supernatants from flavones or mock-treated cells were added into the plate to incubate at water bathed for 2 hours at 37° C. After washing, primary Ab at 200 ng/ml was added and incubated for 1 hour at 37° C. After washing, secondary Ab at 1:8000 was then added and incubated for 1 hour at room temperature. After washing, color reaction substrate was added and incubated for 10 min at dark, then added 2 N sulfuric acid to measure absorption at 492 nm.

[3] = target: T2, estrogen receptor-α (ERα) (Homo sapiens, UniProt P03372); assay: Estrogen receptor-α activation, luciferase reporter gene system in U2OS cells; settings: 10 nM estradiol, 24 hr incubation, FIG. 2
T2 construct: The full length ER-α and ER-β cDNA were separately cloned from human adipose tissue using PCR method; expressed in transfected cells; host or cells: U2OS cells
T2 sequence (P03372 1-595): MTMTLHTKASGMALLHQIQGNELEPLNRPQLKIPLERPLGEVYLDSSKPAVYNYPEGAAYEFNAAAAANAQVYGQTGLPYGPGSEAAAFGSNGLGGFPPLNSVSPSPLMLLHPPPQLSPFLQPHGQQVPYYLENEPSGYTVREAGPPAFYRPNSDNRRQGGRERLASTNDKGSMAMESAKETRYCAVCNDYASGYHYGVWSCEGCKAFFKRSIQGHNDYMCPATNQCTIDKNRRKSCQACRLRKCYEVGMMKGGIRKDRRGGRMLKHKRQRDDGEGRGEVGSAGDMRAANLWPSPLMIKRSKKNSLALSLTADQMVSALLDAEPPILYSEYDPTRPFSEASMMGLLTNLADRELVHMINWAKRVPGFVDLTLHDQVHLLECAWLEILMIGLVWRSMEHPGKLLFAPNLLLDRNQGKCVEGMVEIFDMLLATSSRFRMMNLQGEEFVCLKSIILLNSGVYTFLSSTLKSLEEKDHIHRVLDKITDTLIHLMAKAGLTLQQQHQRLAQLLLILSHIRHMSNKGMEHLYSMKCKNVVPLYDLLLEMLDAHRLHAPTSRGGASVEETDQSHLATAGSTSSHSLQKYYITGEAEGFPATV
Procedure: (§1) The activation evaluation of the ERs were performed using a luciferase reporter gene system. The full length ER-α and ER-β cDNA were separately cloned from human adipose tissue using PCR method. The primer sequence 4 (ERα) used was 5′-[…]-3′ (SEQ ID NO:4); the primer sequence 5 (ERα) used was 5′-[…]-3′(SEQ ID NO:5); the primer sequence 6 (ERβ) used was 5′-[…]-3′ (SEQ ID NO:6); the primer sequence 7 (ERβ) used was 5′-[…]-3′(SEQ ID NO:7). The amplified PCR products were inserted into expression vector and confirmed by sequencing. The report genes were constructed by using luciferase detected carrier pGL3-Promoter from Promega Ltd. Three copies of ER response element were inserted into the upstream of pGL3-Promoter (sequence 8 used was 5′-[…] -3′ (SEQ ID NO:8)). The co-transfection experiments were conducted in 96-well plates using U2OS cells. 24 hours after transfection, 10 nM estradiol, DMSO (0.1%), and testing compounds were added into cell culture for further 24 hr incubation.

[4] = target: T3, estrogen receptor-β (ERβ) (Homo sapiens, UniProt Q92731); assay: Estrogen receptor-β activation, luciferase reporter gene system in U2OS cells; settings: 10 nM estradiol, 24 hr incubation, FIG. 3
T3 construct: The full length ER-α and ER-β cDNA were separately cloned from human adipose tissue using PCR method; expressed in transfected cells; host or cells: U2OS cells
T3 sequence (Q92731 whole entry): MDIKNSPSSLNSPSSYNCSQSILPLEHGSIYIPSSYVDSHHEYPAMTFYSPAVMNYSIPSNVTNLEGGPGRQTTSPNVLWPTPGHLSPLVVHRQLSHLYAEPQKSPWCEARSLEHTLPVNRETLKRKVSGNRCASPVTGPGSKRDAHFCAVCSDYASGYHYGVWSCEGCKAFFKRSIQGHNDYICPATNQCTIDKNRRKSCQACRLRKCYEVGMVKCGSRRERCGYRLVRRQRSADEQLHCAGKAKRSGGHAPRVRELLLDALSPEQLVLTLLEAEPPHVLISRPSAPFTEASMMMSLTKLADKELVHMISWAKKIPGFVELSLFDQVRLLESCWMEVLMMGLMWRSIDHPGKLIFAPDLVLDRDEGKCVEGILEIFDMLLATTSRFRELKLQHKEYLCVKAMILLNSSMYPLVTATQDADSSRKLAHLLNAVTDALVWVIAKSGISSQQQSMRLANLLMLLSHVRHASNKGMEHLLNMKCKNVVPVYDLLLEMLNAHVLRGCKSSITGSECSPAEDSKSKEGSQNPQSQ
Procedure: as §1

[5] = Homo sapiens, PSA secretion, read-out: Rate of inhibition (%)
[6] = Homo sapiens, PSA secretion, concentration 12.5 ug/ml, read-out: Rate of inhibition (%)
[7] = Homo sapiens, PSA secretion, concentration 25 ug/ml, read-out: Rate of inhibition (%)
[8] = Homo sapiens, PSA secretion, concentration 50 ug/ml, read-out: Rate of inhibition (%)

| Compound | Inhibition of androgen receptor (AR) activation [1] | Rate of inhibition (%) ([2]; concentration 5 ug/ml) | Rate of inhibition (%) ([2]; concentration 12.5 ug/ml) | Rate of inhibition (%) ([2]; concentration 25 ug/ml) | Rate of inhibition (%) ([2]; concentration 50 ug/ml) | inhibition at 1 µg/mL [2, 5] [%] | inhibition at 3 µg/mL [2, 5] [%] | inhibition at 6.25 µg/mL [2, 5] [%] | inhibition at 12.5 µg/mL [2, 6] [%] | inhibition at 25 µg/mL [2, 7] [%] | inhibition at 50 µg/mL [2, 8] [%] | Effect on estrogen receptor-α (ERα) activation [3] | Effect on estrogen receptor-β (ERβ) activation [4] | other results |
| --- | --- | --- | --- | --- | --- | --- | --- | --- | --- | --- | --- | --- | --- | --- |
| CCC=CCC=CCC=CCCCCCCCC(=O)NCCO [Long chain amide, N-(2-ethoxyl)-9,12,15-linolenamide] | Inhibition of androgen receptor (AR) activation | 9.7 | 31 | 63 | 71 | – | – | – | – | – | – | – | – | Rate of inhibition (%) ([2]; concentration 20 ug/ml): 52% |
| CCC=CCC=CCC=CCCCCCCCC(=O)OC[C@@]1(O)O[C@H](CO)[C@@H](O)[C@@H]1O [Octadecatrienoic acid fructoside, 9,12,15-octadecatrienoic acid 1-O-β-D-fructoside] | Inhibition of androgen receptor (AR) activation | 23 | 57 | 76 | – | – | – | – | – | – | – | – | – | Rate of inhibition (%) ([2]; concentration 10 ug/ml): 40% |
| O=c1c(O)c(-c2ccc(O)cc2)oc2cc(O)cc(O)c12 [kaempferol] | – | – | – | – | – | 53 | 60 | 69 | 65 | 66 | 89 | – | – | – |
| O=c1cc(-c2ccc(O)c(O)c2)oc2cc(O)cc(O)c12 [luteolin] | Inhibition of androgen receptor (AR) activation | – | – | – | – | 37 | 48 | – | – | – | – | Inhibition | Inhibition | inhibition at 10 µg/mL ([2]; Homo sapiens, PSA secretion, concentration 10 ug/ml, read-out: Rate of inhibition (%)): 57%; inhibition at 20 µg/mL ([2]; Homo sapiens, PSA secretion, concentration 20 ug/ml, read-out: Rate of inhibition (%)): 67%; inhibition at 40 µg/mL ([2]; Homo sapiens, PSA secretion, concentration 40 ug/ml, read-out: Rate of inhibition (%)): 100% |
| O=C1C[C@@H](c2ccc(O)cc2)Oc2cc(O)cc(O)c21 [naringenin] | Inhibition of androgen receptor (AR) activation | – | – | – | – | – | – | 78 | 84 | 87 | 88 | Inhibition | Inhibition | – |
| hexadecanoic 1-O-β-D-fructoside [Hexadecanoic fructoside] | Inhibition of androgen receptor (AR) activation | 4.5 | 8.4 | 26 | 42 | – | – | – | – | – | – | – | – | Rate of inhibition (%) ([2]; concentration 100 ug/ml): 76% |
